Results reported in EP4268810A1 (priority 2022, dated 2023).
Read-outs that look alike come from different tables or passages of the source.

Legend:
[1] = test system: SARS-CoV-2 clinical omicron isolate
[2] = test system: SARS-CoV-2 clinical omicron isolate; assay: microbe, parasite or virus in culture; conditions: Severe acute respiratory syndrome coronavirus 2, Calu-3

| SMILES | Therapeutic range: CC50/IC50, CTG ([1]; SARS-CoV-2 omicron in Calu-3 cells, CC50 by CTG) | Therapeutic range: CC50/IC50, IncuCyte ([1]; SARS-CoV-2 omicron in Calu-3 cells, CC50 by IncuCyte) | Therapeutic range: CC50/IC50, MTT ([1]; SARS-CoV-2 omicron in Calu-3 cells, CC50 by MTT) | IC50 [2] [nM] | Therapeutic range: CC50/IC50, CTG ([1]; human, calu-3 cells) | Therapeutic range: CC50/IC50, IncuCyte ([1]; human, calu-3 cells) | Therapeutic range: CC50/IC50, MTT ([1]; human, calu-3 cells) |
| --- | --- | --- | --- | --- | --- | --- | --- |
| COc1[nH]c(=O)c(C(=O)C(C)CC(C)C(Cl)CCl)c(O)c1OC (centres unmarked) [Atpenin A5] | CTG: 1.3 | IncuCyte: > 117.6 | MTT: 1.8 | 680 |  |  |  |
| [H]/N=C(/N)N/C(=N/[H])NCCc1ccccc1 [Phenformin, phenformin] |  |  |  | 1350 | CTG: 1674 | IncuCyte: 1111 | MTT: 1123 |
